Measurements reported in ChEMBL document CHEMBL4376890, “Unique Sulfur-Aromatic Interactions Contribute to the Binding of Potent Imidazothiazole Indoleamine 2,3-Dioxygenase Inhibitors” (J Med Chem, 2020).

These molecules were tested against T1, Indoleamine 2,3-dioxygenase 1 (Homo sapiens, UniProt P14902) (assay: Inhibition of recombinant full-length N-terminal His-tagged human IDO1 (1 to 403 residues) expressed in Escherichia coli BL21(DE3) cells).
T1 sequence (P14902 whole entry, the tested form may be a part): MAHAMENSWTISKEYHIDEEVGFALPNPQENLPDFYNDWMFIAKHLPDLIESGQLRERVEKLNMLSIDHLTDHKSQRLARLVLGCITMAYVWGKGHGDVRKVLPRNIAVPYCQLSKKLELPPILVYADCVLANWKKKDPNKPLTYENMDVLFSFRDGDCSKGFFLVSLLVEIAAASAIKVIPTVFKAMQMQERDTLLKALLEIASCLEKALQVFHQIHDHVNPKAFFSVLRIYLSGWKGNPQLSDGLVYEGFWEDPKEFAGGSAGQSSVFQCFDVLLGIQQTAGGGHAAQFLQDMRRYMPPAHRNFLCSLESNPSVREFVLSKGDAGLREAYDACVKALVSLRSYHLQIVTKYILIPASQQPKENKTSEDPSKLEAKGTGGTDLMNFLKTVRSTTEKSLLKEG

SMILES | IC50
S=C(NCc1cnc2scc(C#CC3CC3)n12)Nc1cccc(Cl)c1 | 27.6 nM
OC(c1ccccc1)c1cnc2scc(-c3ccc(Br)cc3)n12 (configuration not stated) | 1090 nM
N#Cc1ccc(NC(=O)NCc2cnc3scc(C#Cc4cccnc4)n23)cc1 | 3200 nM
CCCCNC(=S)NCc1cnc2scc(C#CC3CC3)n12 | 502 nM
O=C(NCc1cnc2scc(C#CC3CC3)n12)Nc1cccc(Cl)c1 | 42 nM
N#Cc1ccc(NC(=O)NCc2cnc3scc(C#Cc4ccsc4)n23)cc1 | 73.9 nM
O=C(CSc1nnc2scc(-c3ccc(Cl)cc3)n12)c1ccc(Br)cc1 | 339 nM
OC(c1cnc2scc(-c3ccc(Br)cc3)n12)C1CCCCC1 (configuration not stated) | 1280 nM
N#Cc1ccc(NC(=O)NCc2cnc3scc(C#CC4CCCC4)n23)cc1 | 418 nM
N#Cc1ccc(NC(=O)NCc2cnc3scc(C#Cc4ccc(Cl)s4)n23)cc1 | 823 nM
N#Cc1ccc(NC(=S)NCc2cnc3scc(C#CC4CC4)n23)cc1 | 16.4 nM
OC(c1cnc2scc(C#CC3CC3)n12)C1CCCCC1 (configuration not stated) | 7150 nM
Brc1ccc(-c2csc3nccn23)cc1 | 380 nM
CCCS(=O)(=O)NCc1cnc2scc(-c3ccc(Br)cc3)n12 | 1070 nM
O=S(=O)(Cc1cccc(Cl)c1)NCc1cnc2scc(-c3ccc(Br)cc3)n12 | 744 nM
Cc1sc2nccn2c1-c1ccc(Br)cc1 | 3110 nM
O=C(CSc1nnc2scc(-c3ccc(Br)cc3)n12)c1ccc(Br)cc1 | > 10000 nM
CC(C)CSc1nnc2scc(-c3ccc(Cl)cc3)n12 | 256 nM
Cc1ccc(CS(=O)(=O)NCc2cnc3scc(-c4ccc(Br)cc4)n23)cc1 | 855 nM
N#Cc1ccc(NC(=O)NCc2cnc3scc(C#CC4CC4)n23)cc1 | 102 nM
O=C(CSc1nnc2scc(C3CCCCC3)n12)c1ccc(Br)cc1 | > 10000 nM

Each molecule was assayed against T1, Indoleamine 2,3-dioxygenase 1 (assay: Inhibition of human […] by HTS assay).

SMILES | IC50
O=C(CSc1nnc2scc(-c3ccccc3)n12)Nc1ccc(Cl)cc1 | 1190 nM
